Source: ChEMBL document CHEMBL1177794, “Broad spectrum alkynyl inhibitors of T315I Bcr-Abl” (Bioorg Med Chem Lett, 2010)

Key:
[1] = test system: Phosphatidylinositol 4,5-bisphosphate 3-kinase catalytic subunit alpha isoform (Homo sapiens), P42336 [H1047L]; assay: Inhibition of PIK3CA H1047L mutant at 10 uM
[2] = target: Insulin receptor-related protein (Homo sapiens) (UniProt P14616); assay: Inhibition of INSRR at 10 uM; details: values are per cent of control
[3] = target: Myosin light chain kinase 2, skeletal/cardiac muscle (Homo sapiens) (UniProt Q9H1R3); assay: Inhibition of MYLK2 at 10 uM
Sequence of Myosin light chain kinase 2, skeletal/cardiac muscle (Homo sapiens) (Q9H1R3 whole entry): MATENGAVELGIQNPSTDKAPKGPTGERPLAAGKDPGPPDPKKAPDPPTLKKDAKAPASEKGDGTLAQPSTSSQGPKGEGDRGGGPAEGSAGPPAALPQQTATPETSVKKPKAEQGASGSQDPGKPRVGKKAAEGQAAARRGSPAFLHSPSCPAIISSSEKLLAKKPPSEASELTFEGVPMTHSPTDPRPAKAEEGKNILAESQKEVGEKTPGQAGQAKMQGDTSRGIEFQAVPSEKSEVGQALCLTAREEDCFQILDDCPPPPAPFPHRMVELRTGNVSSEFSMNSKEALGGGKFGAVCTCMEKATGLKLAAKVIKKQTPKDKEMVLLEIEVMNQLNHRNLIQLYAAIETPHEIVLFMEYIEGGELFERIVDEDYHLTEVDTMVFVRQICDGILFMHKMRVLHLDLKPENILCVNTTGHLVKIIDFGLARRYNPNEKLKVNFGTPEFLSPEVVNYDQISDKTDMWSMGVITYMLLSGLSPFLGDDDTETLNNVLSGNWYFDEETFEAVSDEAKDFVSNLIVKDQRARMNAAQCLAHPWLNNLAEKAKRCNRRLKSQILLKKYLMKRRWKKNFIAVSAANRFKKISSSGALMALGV

[4] = target: Mitogen-activated protein kinase 8 (Homo sapiens) (UniProt P45983); assay: Inhibition of JNK1 at 10 uM; values are per cent of control
[5] = target: MAP/microtubule affinity-regulating kinase 4 (Homo sapiens) (UniProt Q96L34); assay: Inhibition of MARK4 at 10 uM; details: values are per cent of control
[6] = target: cAMP-dependent protein kinase catalytic subunit PRKX (Homo sapiens) (UniProt P51817); assay: Inhibition of PRKX at 10 uM
[7] = test system: Mast/stem cell growth factor receptor Kit (Homo sapiens), P10721 [D816H]; assay: Inhibition of KIT D816H mutant at 10 uM; details: values are per cent of control
[8] = target: ALK tyrosine kinase receptor (Homo sapiens) (UniProt Q9UM73); assay: Inhibition of ALK at 10 uM; values are per cent of control
[9] = target: Tyrosine-protein kinase ABL1 (Homo sapiens) (UniProt P00519); assay: Inhibition of non phosphorylated ABL1 at 10 uM; details: values are per cent of control
[10] = target: Cyclin-dependent kinase 2 homolog (Plasmodium falciparum (isolate K1 / Thailand)) (UniProt Q07785); assay: Inhibition of Plasmodium falciparum PFPK5 at 10 uM
[11] = target: Serine/threonine-protein kinase 38-like (Homo sapiens) (UniProt Q9Y2H1); assay: Inhibition of NDR2 at 10 uM
[12] = target: Mitogen-activated protein kinase kinase kinase kinase 2 (Homo sapiens) (UniProt Q12851); assay: Inhibition of MAP4K2 at 10 uM; details: values are per cent of control
[13] = target: Mitogen-activated protein kinase 1 (Homo sapiens) (UniProt P28482); assay: Inhibition of ERK2 at 10 uM; values are per cent of control
[14] = target: Mitogen-activated protein kinase kinase kinase 15 (Homo sapiens) (UniProt Q6ZN16); assay: Inhibition of MAP3K15 at 10 uM; details: values are per cent of control
[15] = target: Calcium/calmodulin-dependent protein kinase type II subunit alpha (Homo sapiens) (UniProt Q9UQM7); assay: Inhibition of CAMK2A at 10 uM; details: values are per cent of control
[16] = target: Myosin-IIIa (Homo sapiens) (UniProt Q8NEV4); assay: Inhibition of MYO3A at 10 uM
[17] = target: Serine/threonine-protein kinase 32B (Homo sapiens) (UniProt Q9NY57); assay: Inhibition of YANK2 at 10 uM; details: values are per cent of control
[18] = target: SRSF protein kinase 1 (Homo sapiens) (UniProt Q96SB4); assay: Inhibition of SRPK1 at 10 uM
[19] = target: Mitogen-activated protein kinase 11 (Homo sapiens) (UniProt Q15759); assay: Inhibition of p38beta at 10 uM; values are per cent of control
[20] = test system: Tyrosine-protein kinase ABL1 (Homo sapiens), P00519 [E255K]; assay: Inhibition of phosphorylated ABL1 E255K mutant at 10 uM; details: values are per cent of control
[21] = test system: Tyrosine-protein kinase ABL1 (Homo sapiens), P00519 [Q252H]; assay: Inhibition of non phosphorylated ABL1 Q252H mutant at 10 uM; details: values are per cent of control
[22] = target: Phosphatidylinositol 5-phosphate 4-kinase type-2 gamma (Homo sapiens) (UniProt Q8TBX8); assay: Inhibition of PIP5K2C at 10 uM
[23] = test system: Tyrosine-protein kinase ABL1 (Homo sapiens), P00519 [T315I]; assay: Inhibition of phosphorylated ABL1 T315I mutant at 10 uM; details: values are per cent of control
[24] = target: STE20/SPS1-related proline-alanine-rich protein kinase (Homo sapiens) (UniProt Q9UEW8); assay: Inhibition of STK39 at 10 uM
[25] = target: Tyrosine-protein kinase Mer (Homo sapiens) (UniProt Q12866); assay: Inhibition of MERTK at 10 uM; details: values are per cent of control
Sequence of Tyrosine-protein kinase Mer (Homo sapiens) (Q12866 whole entry): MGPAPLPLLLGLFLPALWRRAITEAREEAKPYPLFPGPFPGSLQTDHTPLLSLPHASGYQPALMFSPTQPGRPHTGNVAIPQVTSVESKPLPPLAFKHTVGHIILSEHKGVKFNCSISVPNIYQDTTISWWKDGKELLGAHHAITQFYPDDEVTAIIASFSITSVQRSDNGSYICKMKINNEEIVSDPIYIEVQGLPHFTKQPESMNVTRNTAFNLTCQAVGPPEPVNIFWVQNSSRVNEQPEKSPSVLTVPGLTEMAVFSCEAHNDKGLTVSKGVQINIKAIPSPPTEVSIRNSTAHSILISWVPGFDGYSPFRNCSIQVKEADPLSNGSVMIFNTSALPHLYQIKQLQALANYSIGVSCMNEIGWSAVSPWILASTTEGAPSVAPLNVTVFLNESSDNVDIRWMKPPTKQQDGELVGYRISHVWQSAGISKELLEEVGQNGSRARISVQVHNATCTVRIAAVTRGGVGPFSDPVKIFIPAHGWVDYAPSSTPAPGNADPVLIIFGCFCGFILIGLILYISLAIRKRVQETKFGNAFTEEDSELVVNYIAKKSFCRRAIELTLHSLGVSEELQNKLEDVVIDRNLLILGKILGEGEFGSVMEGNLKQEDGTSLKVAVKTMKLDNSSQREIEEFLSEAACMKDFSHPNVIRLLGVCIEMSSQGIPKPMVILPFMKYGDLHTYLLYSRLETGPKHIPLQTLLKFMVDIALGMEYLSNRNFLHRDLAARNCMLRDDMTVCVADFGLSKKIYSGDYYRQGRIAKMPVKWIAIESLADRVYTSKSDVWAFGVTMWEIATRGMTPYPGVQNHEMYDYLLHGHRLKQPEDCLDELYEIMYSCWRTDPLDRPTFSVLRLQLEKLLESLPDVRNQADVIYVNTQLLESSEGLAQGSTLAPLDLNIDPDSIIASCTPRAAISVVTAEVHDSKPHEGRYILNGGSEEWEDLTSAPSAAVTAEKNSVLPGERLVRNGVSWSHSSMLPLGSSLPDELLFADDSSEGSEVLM

[26] = target: Ephrin type-B receptor 1 (Homo sapiens) (UniProt P54762); assay: Inhibition of EPHB1 at 10 uM; details: values are per cent of control
[27] = target: Casein kinase I isoform alpha (Homo sapiens) (UniProt P48729); assay: Inhibition of CSNK1A1 at 10 uM; values are per cent of control
[28] = test system: Receptor-type tyrosine-protein kinase FLT3 (Homo sapiens), P36888 [R834Q]; assay: Inhibition of FLT3 R834Q mutant at 10 uM; details: values are per cent of control
[29] = target: Dual specificity mitogen-activated protein kinase kinase 7 (Homo sapiens) (UniProt O14733); assay: Inhibition of MKK7 at 10 uM
[30] = target: Cytoplasmic tyrosine-protein kinase BMX (Homo sapiens) (UniProt P51813); assay: Inhibition of BMX at 10 uM; details: values are per cent of control
[31] = target: Maternal embryonic leucine zipper kinase (Homo sapiens) (UniProt Q14680); assay: Inhibition of MELK at 10 uM; details: values are per cent of control
[32] = target: Serine/threonine-protein kinase Nek3 (Homo sapiens) (UniProt P51956); assay: Inhibition of NEK3 at 10 uM
[33] = target: Serine/threonine-protein kinase SBK1 (Homo sapiens) (UniProt Q52WX2); assay: Inhibition of SBK1 at 10 uM
[34] = target: Rho-associated protein kinase 2 (Homo sapiens) (UniProt O75116); assay: Inhibition of ROCK2 at 10 uM
[35] = target: Serine/threonine-protein kinase SIK1 (Homo sapiens) (UniProt P57059); assay: Inhibition of SIK at 10 uM; values are per cent of control
[36] = target: Serine/threonine-protein kinase RIO3 (Homo sapiens) (UniProt O14730); assay: Inhibition of RIOK3 at 10 uM
[37] = target: LIM domain kinase 2 (Homo sapiens) (UniProt P53671); assay: Inhibition of LIMK2 at 10 uM; details: values are per cent of control
[38] = target: Ribosomal protein S6 kinase alpha-4 (Homo sapiens) (UniProt O75676); assay: Inhibition of RPS6KA4 C-terminal domain2 at 10 uM
[39] = test system: Phosphatidylinositol 4,5-bisphosphate 3-kinase catalytic subunit alpha isoform (Homo sapiens), P42336 [I800L]; assay: Inhibition of PIK3CA I800L mutant at 10 uM
Sequence of Phosphatidylinositol 4,5-bisphosphate 3-kinase catalytic subunit alpha isoform (Homo sapiens), P42336 [I800L] (P42336 whole entry I800L, canonical isoform): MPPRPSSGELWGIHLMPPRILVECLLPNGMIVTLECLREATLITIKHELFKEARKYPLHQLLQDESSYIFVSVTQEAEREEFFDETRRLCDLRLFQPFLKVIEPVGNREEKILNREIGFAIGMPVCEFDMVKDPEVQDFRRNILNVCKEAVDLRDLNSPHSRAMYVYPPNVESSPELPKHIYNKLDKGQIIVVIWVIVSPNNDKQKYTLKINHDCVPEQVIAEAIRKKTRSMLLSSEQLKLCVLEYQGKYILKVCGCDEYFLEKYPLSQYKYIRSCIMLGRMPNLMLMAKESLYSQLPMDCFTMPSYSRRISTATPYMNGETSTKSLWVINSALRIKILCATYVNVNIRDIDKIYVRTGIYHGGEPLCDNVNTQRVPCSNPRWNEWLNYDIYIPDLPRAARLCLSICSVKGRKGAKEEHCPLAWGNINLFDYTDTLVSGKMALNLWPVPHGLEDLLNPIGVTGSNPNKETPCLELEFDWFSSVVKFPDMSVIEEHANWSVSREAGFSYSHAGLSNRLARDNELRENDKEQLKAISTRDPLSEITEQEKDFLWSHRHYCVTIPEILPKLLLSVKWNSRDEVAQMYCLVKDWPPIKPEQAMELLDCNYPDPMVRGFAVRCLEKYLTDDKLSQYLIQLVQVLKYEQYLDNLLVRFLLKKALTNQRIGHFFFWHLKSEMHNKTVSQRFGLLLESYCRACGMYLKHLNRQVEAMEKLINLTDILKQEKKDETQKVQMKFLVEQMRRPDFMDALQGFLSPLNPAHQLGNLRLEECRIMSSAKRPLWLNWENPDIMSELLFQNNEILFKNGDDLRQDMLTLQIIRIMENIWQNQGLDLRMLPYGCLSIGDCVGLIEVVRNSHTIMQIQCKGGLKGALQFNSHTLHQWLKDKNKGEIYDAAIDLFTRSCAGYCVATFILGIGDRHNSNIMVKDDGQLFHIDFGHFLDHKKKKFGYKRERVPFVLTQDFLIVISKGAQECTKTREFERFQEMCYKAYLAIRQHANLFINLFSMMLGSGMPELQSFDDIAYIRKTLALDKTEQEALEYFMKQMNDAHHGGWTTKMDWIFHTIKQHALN

[40] = target: Ephrin type-B receptor 6 (Homo sapiens) (UniProt O15197); assay: Inhibition of EPHB6 at 10 uM; details: values are per cent of control
Sequence of Ephrin type-B receptor 6 (Homo sapiens) (O15197 whole entry): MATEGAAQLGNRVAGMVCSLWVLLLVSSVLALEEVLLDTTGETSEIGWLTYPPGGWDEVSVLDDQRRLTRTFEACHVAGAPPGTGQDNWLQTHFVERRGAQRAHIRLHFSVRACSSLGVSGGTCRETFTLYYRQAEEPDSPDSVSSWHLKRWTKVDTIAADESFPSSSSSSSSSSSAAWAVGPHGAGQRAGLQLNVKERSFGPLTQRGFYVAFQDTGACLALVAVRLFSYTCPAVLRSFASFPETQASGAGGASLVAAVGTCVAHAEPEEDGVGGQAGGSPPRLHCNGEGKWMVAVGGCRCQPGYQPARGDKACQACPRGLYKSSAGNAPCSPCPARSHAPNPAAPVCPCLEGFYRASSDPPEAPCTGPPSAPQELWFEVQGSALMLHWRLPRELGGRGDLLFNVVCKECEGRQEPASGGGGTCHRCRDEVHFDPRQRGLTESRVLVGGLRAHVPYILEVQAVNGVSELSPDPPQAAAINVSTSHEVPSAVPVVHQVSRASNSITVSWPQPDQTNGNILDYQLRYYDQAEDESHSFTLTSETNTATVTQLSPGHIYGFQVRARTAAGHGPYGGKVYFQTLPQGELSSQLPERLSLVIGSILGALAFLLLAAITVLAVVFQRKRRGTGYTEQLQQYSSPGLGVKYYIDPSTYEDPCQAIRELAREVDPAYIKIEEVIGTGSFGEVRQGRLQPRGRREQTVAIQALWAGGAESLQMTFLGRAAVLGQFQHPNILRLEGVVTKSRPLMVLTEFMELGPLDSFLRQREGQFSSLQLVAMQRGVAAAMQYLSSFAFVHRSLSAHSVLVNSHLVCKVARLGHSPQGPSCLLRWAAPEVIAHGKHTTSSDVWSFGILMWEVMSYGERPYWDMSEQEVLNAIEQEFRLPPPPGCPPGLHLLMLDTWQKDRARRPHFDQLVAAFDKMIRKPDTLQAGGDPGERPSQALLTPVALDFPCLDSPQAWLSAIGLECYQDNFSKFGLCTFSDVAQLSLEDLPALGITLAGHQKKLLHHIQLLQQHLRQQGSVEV

[41] = target: Mitogen-activated protein kinase kinase kinase 20 (Homo sapiens) (UniProt Q9NYL2); assay: Inhibition of ZAK at 10 uM; details: values are per cent of control
[42] = target: Mitogen-activated protein kinase kinase kinase 19 (Homo sapiens) (UniProt Q56UN5); assay: Inhibition of YSK4 at 10 uM; details: values are per cent of control
Sequence of Mitogen-activated protein kinase kinase kinase 19 (Homo sapiens) (Q56UN5 whole entry): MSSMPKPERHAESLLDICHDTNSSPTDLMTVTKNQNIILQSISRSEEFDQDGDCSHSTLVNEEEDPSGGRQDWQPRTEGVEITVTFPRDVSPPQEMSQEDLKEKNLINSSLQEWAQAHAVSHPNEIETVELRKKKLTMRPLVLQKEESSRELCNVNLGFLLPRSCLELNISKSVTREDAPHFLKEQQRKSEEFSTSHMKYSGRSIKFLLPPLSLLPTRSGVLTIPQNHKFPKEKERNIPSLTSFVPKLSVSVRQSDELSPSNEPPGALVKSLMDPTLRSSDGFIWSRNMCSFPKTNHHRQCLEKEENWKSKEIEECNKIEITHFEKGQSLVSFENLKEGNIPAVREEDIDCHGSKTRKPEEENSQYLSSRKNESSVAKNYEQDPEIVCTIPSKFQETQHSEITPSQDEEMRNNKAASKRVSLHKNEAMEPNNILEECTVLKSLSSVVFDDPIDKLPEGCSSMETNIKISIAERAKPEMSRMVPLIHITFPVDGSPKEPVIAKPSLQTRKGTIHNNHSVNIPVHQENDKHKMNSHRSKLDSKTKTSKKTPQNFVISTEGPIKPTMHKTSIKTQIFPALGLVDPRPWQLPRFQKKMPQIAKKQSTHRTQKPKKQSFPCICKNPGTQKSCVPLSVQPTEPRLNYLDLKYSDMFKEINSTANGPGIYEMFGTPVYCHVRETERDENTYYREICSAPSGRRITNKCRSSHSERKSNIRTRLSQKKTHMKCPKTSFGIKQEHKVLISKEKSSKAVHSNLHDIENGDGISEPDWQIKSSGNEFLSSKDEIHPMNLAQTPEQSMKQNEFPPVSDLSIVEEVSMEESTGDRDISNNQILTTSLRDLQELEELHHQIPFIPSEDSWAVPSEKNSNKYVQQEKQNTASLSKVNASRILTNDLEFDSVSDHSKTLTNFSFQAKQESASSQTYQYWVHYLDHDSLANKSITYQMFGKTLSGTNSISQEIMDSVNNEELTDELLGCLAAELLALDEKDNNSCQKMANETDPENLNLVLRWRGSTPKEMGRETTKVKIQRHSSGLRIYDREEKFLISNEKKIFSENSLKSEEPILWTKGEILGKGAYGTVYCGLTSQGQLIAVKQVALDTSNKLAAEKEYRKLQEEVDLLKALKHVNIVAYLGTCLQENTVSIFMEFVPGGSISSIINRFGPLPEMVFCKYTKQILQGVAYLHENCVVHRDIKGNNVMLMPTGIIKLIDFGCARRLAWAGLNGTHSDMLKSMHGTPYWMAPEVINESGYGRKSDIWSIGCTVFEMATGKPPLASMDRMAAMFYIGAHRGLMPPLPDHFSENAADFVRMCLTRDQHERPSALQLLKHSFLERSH

Sequence of Phosphatidylinositol 4,5-bisphosphate 3-kinase catalytic subunit alpha isoform (Homo sapiens), P42336 [H1047L] (P42336 whole entry H1047L, canonical isoform): as the sequence (P42336 whole entry I800L, canonical isoform) above, with L800I, H1047L counted along it

## CCN1CCN(Cc2ccc(NC(=O)c3ccc(C)c(C#Cc4cnc5[nH]ccc5c4)c3)cc2C(F)(F)F)CC1
[1]
  inhibition: 100%
[2]
  residual binding, % of control: 68%
[3]
  inhibition: 0.15%
[4]
  level, % of control: 0.45%
[5]
  residual binding, % of control: 85%
[6]
  inhibition: 19%
[7]
  residual binding, % of control: 8.2%
[8]
  level, % of control: 52%
[9]
  residual binding, % of control: 0.1%
[10]
  inhibition: 93%
[11]
  inhibition: 11%
[12]
  residual binding, % of control: 0%
[13]
  level, % of control: 100%
[14]
  residual binding, % of control: 72%
[15]
  residual binding, % of control: 100%
[16]
  inhibition: 15%
[17]
  residual binding, % of control: 100%
[18]
  inhibition: 100%
[19]
  level, % of control: 0%
[20]
  residual binding, % of control: 0.2%
[21]
  residual binding, % of control: 1.6%
[22]
  inhibition: 100%
[23]
  residual binding, % of control: 0.9%
[24]
  inhibition: 100%
[25]
  residual binding, % of control: 0.5%
[26]
  residual binding, % of control: 0.35%
[27]
  level, % of control: 89%
[28]
  residual binding, % of control: 7.2%
[29]
  inhibition: 5.4%
[30]
  residual binding, % of control: 2.6%
[31]
  residual binding, % of control: 6.1%
[32]
  inhibition: 49%
[33]
  inhibition: 87%
[34]
  inhibition: 18%
[35]
  % of control: 0.25%
[36]
  inhibition: 38%
[37]
  residual binding, % of control: 0.35%
[38]
  inhibition: 87%
[39]
  inhibition: 100%
[40]
  residual binding, % of control: 0.85%
[41]
  residual binding, % of control: 0.25%
[42]
  residual binding, % of control: 0.1%

## CCN1CCN(Cc2ccc(NC(=O)c3ccc(C)c(C#Cc4cccnc4)c3)cc2C(F)(F)F)CC1
[1]
  inhibition: 100%
[2]
  residual binding, % of control: 79%
[3]
  inhibition: 3.4%
[4]
  level, % of control: 0.55%
[5]
  residual binding, % of control: 87%
[6]
  inhibition: 3.6%
[7]
  residual binding, % of control: 6%
[8]
  level, % of control: 23%
[9]
  residual binding, % of control: 0%
[10]
  inhibition: 89%
[11]
  inhibition: 8.7%
[12]
  residual binding, % of control: 0%
[13]
  level, % of control: 100%
[14]
  residual binding, % of control: 78%
[15]
  residual binding, % of control: 100%
[16]
  inhibition: 3.2%
[17]
  residual binding, % of control: 100%
[18]
  inhibition: 100%
[19]
  level, % of control: 0%
[20]
  residual binding, % of control: 0.05%
[21]
  residual binding, % of control: 6.4%
[22]
  inhibition: 100%
[23]
  residual binding, % of control: 2.6%
[24]
  inhibition: 89%
[25]
  residual binding, % of control: 5.2%
[26]
  residual binding, % of control: 0.5%
[27]
  level, % of control: 75%
[28]
  residual binding, % of control: 4.2%
[29]
  inhibition: 11%
[30]
  residual binding, % of control: 2.7%
[31]
  residual binding, % of control: 8.1%
[32]
  inhibition: 53%
[33]
  inhibition: 88%
[34]
  inhibition: 19%
[35]
  % of control: 0.45%
[36]
  inhibition: 70%
[37]
  residual binding, % of control: 11%
[38]
  inhibition: 99%
[39]
  inhibition: 72%
[40]
  residual binding, % of control: 8.8%
[41]
  residual binding, % of control: 0.4%
[42]
  residual binding, % of control: 0.1%
